≈ marks a conversion by molar mass, not a printed value. Read-outs that look alike come from different tables or passages of the source.
Columns and labels:
[1] = tested on: Hela human cervical carcinoma; test: In vitro anti-tumor IC50 (MTT), Hela; type: cell-based; details: Table 4
Description: (§1) (1) Single cell suspension was seeded into 96-well plates (the cells was diluted in the PRMI-1640 minimum medium to 3×10^4 cells/ml, […] diluted cells/well). […] The experiments were performed in quadruplicate.
(§2) (2) The medium was removed. Solutions of the anti-tumor agents (50 compounds) were prepared in a freshly prepared medium at serial concentrations. […] of the solution was added into each well. Incubation was continued for 48 hours.
(§3) (3) 20 ug of 2 mg/ml MTT was added into each well, and incubated for 4 hours.
(§4) (4) The medium was removed from the well. The microplates were swiftly turned down to throw-off the medium. […] of DMSO was added into each well, and vortexed at room temperature for 10 minutes.
(§5) (5) OD value (λ=570 nm) was measured with an Enzyme-Linked Detector.
(§6) (6) The graph of cell vitality was plotted, and IC50 was calculated.

[2] = tested on: MCF-7 human mammary adenocarcinoma; test: In vitro anti-tumor IC50 (MTT), MCF-7; type: cell-based; details: Table 4
Description: as §1, §2, §3, §4, §5, §6

[3] = tested on: A-549 human lung adenocarcinoma; test: In vitro anti-tumor IC50 (MTT), A-549; type: cell-based; details: Table 4
Description: as §1, §2, §3, §4, §5, §6

[4] = tested on: Bel-7402 human hepatic carcinoma; test: In vitro anti-tumor IC50 (MTT), Bel-7402; type: cell-based; details: Table 4
Description: as §1, §2, §3, §4, §5, §6

[5] = tested on: HL-60 human promyelocytic leukemia; test: In vitro anti-tumor IC50 (MTT), HL-60; type: cell-based; details: Table 4
Description: as §1, §2, §3, §4, §5, §6

[6] = tested on: mouse grafted sarcoma S-180; test: Activity against mouse grafted sarcoma S-180; type: in vivo, Kunming mice; details: for Inhibition rate (%) / Tumor weight: 30 mg/kg i.v., 6 doses; for Tumor weight: X ± SD, n = 10
Description: (1) Experimental animals: Kunming mice weighting 18-22 g;
(2) 100 mg/ml solutions of the 3 compounds were prepared, respectively, in water for injection (1% surface surfactant was added into the solution of Compound 6). 5-FU and camptothecine, 30 mg/kg and 1 mg/kg, respectively, were used as positive controls;
3. Route of Administration: Intravenous Injection.
(§7) The experiments were performed according to “Guideline for New Drugs (Western medicines) in Pre-clinical Stages” issued by Bureau of Drug Policy & Administration of the People's Republic of China, and the relevant methods in “Methodology of Pharmaceutical Experiments”, Xu Shuyun et al. ed. 120 male Kunming mice weighting […] were allowed to grow 3 days. No abnormality was observed. The mice were routinely inoculated in oxter with mouse sarcoma S-180, and weighted 4 hrs. after inoculation. The mice were randomly divided into 12 groups, 10 mice/group. Group 1 was given 0.3 ml of physiological saline as negative control; Group 2 was given 5-FU as positive control, 0.6 mg/mouse; Group 3 was given hydroxycamptothecine as positive control, 0.02 mg/mouse. Groups 4, 5 and 6 were injected with 10% Compound 6, 0.4 ml/mouse, 0.2 ml/mouse, and 0.1 ml/mouse, respectively. Groups 7, 8 and 9 were injected with 10% Compound 8, 0.4 ml/mouse, 0.2 ml/mouse, and 0.1 ml/mouse, respectively. Groups 10, 11, and 12 were injected with 10% Compound 20, 0.4 ml/mouse, 0.2 ml/mouse, and 0.1 ml/mouse, respectively. The tested compounds were administered on the next day after inoculation, once a day on alternate days, 6 doses totally administered. On the next day after the end dose, the mice were weighed and sacrificed. After the tumor was excised, body weight and tumor weight were recorded. The tumor inhibition rate was calculated based on the following formula: [(average tumor weight of the control groups−average tumor weight of the experimental groups)/average tumor weight of the control groups]×100%. The data was processed statistically. The above experiments were repeated three times.

[7] = tested on: mouse grafted liver cancer H22; test: Activity against mouse grafted liver cancer H22; type: in vivo, Kunming mice; details: for Tumor weight: X ± SD, n = 10
Description: as §7
The experiments were identical with the experiments for activity against mouse grafted sarcoma S-180, except that the cell line inoculated was liver cancer H22. The experiments were repeated three times.

[8] = tested on: mouse grafted uterine cervix cancer U14; test: Activity against mouse grafted uterine cervix cancer U14; type: in vivo, Kunming mice; details: 30 mg/kg; for Tumor weight: X ± SD, n = 10
Description: as §7
(§8) The experiments were identical with the experiments for activity against mouse grafted sarcoma S-180, except the following:
(1) the tumor cell line inoculated was mouse grafted uterine cervix cancer U14;
(2) all the mice were female.

mouse lung cancer Lewis = test: Activity against mouse grafted lung cancer Lewis; type: in vivo, Kunming mice; details: Lewis, 30 mg/kg; for Tumor weight: X ± SD, n = 10
Description: as §7, §8
(1) the tumor cell line inoculated was mouse lung cancer Lewis;
(2) Compound 6, Compound 8 and Compound 21 were not tested for their activity;
(3) the mice were divided into six groups.

[9] = tested on: influenza A virus (Jifang 90-15); test: microbe, parasite or virus in culture; type: cell-based
MDCK (dog kidney) cells = test: Toxicity TC50 of the samples in MDCK cells (influenza screening); details: concentration of 50% toxicity
[10] = tested on: influenza B virus (Jifang 97-13); test: Screening for the activity against influenza B virus (CPE in MDCK cells)
[11] = tested on: U-937 human histocytic lymphoma; test: In vitro inhibition rate to tumor cells (MTT), U-937; type: cell-based; details: Homo sapiens, U-937, 50 μg/ml, read-out: inhibition rate, Results (%) U-937
[12] = tested on: A-549 human lung adenocarcinoma; test: In vitro inhibition rate to tumor cells (MTT), A-549; type: cell-based; details: Homo sapiens, A549, 50 μg/ml, read-out: inhibition rate, Results (%) A-549
[13] = tested on: Bel-7402 human hepatic carcinoma; test: In vitro inhibition rate to tumor cells (MTT), Bel-7402; type: cell-based; details: Homo sapiens, Bel-7402, 50 μg/ml, read-out: inhibition rate, Results (%) Bel-7402
[14] = tested on: MCF-7 human mammary adenocarcinoma; test: In vitro inhibition rate to tumor cells (MTT), MCF-7; type: cell-based; details: Homo sapiens, MCF7, 50 μg/ml, read-out: inhibition rate, Results (%) MCF-7
[15] = tested on: SMMC-7721 human hepatic carcinoma; test: In vitro inhibition rate to tumor cells (MTT), SMMC-7721; type: cell-based; details: Homo sapiens, SMMC-7721, 50 μg/ml, read-out: inhibition rate, Results (%) SMMC-7721
[16] = tested on: HL-60 human promyelocytic leukemia; test: In vitro inhibition rate to tumor cells (MTT), HL-60; type: cell-based; details: Homo sapiens, HL-60, 50 μg/ml, read-out: inhibition rate, Results (%) HL-60
[17] = tested on: Hela human cervical carcinoma; test: In vitro inhibition rate to tumor cells (MTT), Hela; type: cell-based; details: Homo sapiens, HeLa, 50 μg/ml, read-out: inhibition rate, Results (%) Hela
[18] = tested on: LLC mouse Lewis lung carcinoma; test: In vitro inhibition rate to tumor cells (MTT), LLC; type: cell-based; details: Mus musculus, Lewis lung carcinoma, 50 μg/ml
[19] = Solubility in water (observation); type: physicochemical
[20] = H22, first experiment, 30 mg/kg i.v., 6 doses
[21] = H22, second experiment, 30 mg/kg
[22] = H22, third experiment, 30 mg/kg

SMILES: O=c1[nH]cc(F)c(=O)[nH]1 [Compound 5-FU, reference compound]
- IC50 (ug/ml) against tumor cell lines, Hela [1]: 2.86 µg/mL (≈ 22 µM)
- IC50 (ug/ml) against tumor cell lines, MCF [2]: 1.53 µg/mL (≈ 11.8 µM)
- IC50 (ug/ml) against tumor cell lines, A-549 [3]: 0.7 µg/mL (≈ 5.38 µM)
- IC50 (ug/ml) against tumor cell lines, Bel-7402 [4]: 0.54 µg/mL (≈ 4.15 µM)
- IC50 (ug/ml) against tumor cell lines, HL-60 [5]: 0.51 µg/mL (≈ 3.92 µM)
- Inhibition rate (%) ([6]; S-180, first experiment): 71.2%
- Tumor weight ([6]; S-180, first experiment): 0.72 ± 0.23 g
- Inhibition rate (%) ([6]; S-180, second experiment): 69.6%
- Tumor weight ([6]; S-180, second experiment): 0.79 ± 0.33 g
- Average weight (g)-after administration ([6]; mouse, in vivo, iv, 30 mg/kg): 22.9 g
- Average weight(g)-after administration ([6]; mouse, in vivo, iv, 30 mg/kg): 21.9 g
- Inhibition rate (%) [7, 20]: 60.0%
- Tumor weight [7, 20]: 1.21 ± 0.31 g
- Inhibition rate (%) [7, 21]: 60.5%
- Tumor weight [7, 21]: 1.19 ± 0.31 g
- Inhibition rate (%) [7, 22]: 64.2%
- Tumor weight [7, 22]: 1.08 ± 0.31 g
- Average weight (g)-after administration ([7]; mouse, in vivo, 30 mg/kg): 20.3 g
- Average weight(g)-after administration ([7]; mouse, in vivo, 30 mg/kg): 21.3 g
- Average weight(g)-after administration ([7]; mouse, in vivo, iv, 30 mg/kg): 22.3 g
- Inhibition rate (%) ([8]; U14, first experiment): 40.2%
- Tumor weight ([8]; U14, first experiment): 2.10 ± 0.31 g
- Inhibition rate (%) ([8]; U14, second experiment): 42.6%
- Tumor weight ([8]; U14, second experiment): 1.95 ± 0.31 g
- Inhibition rate (%) ([8]; U14, third experiment): 42.0%
- Tumor weight ([8]; U14, third experiment): 2.10 ± 0.31 g
- Average weight (g)-after administration ([8]; mouse, in vivo): 21.0 g
- Average weight(g)-after administration ([8]; mouse, in vivo): 21.3 g
- Inhibition rate (%) (mouse lung cancer Lewis; first experiment): 55.0%
- Tumor weight (mouse lung cancer Lewis; first experiment): 1.34 ± 0.31 g
- Inhibition rate (%) (mouse lung cancer Lewis; second experiment): 54.3%
- Tumor weight (mouse lung cancer Lewis; second experiment): 1.10 ± 0.31 g
- Inhibition rate (%) (mouse lung cancer Lewis; third experiment): 53.7%
- Tumor weight (mouse lung cancer Lewis; third experiment): 1.25 ± 0.31 g

SMILES: NC(=O)c1ncn([C@@H]2O[C@H](CO)[C@@H](O)[C@H]2O)n1 [RBV]
- IC50, influenza A virus ([9]; CPE in MDCK cells): 2.06 µg/mL (≈ 8.44 µM)
- SI, influenza A virus ([9]; SI = TC50/IC50): 970.87
- TC50 (MDCK (dog kidney) cells): >2000 µg/mL
- IC50, influenza B virus ([10]; CPE in MDCK cells): 6.17 µg/mL (≈ 25.3 µM)
- SI, influenza B virus ([10]; SI = TC50/IC50): 324.15

SMILES: CC(C)C1CC23OC1(O)CC(O)(CO)C2CCC3C (centres unmarked) [Compound 32, Curcumol dihydroxy compound]
- inhibition at 50 µg/mL ([11]; Table 1): 65.3%
- inhibition at 50 µg/mL ([11]; Table 2 (repeated screening)): 67.2%
- inhibition at 50 µg/mL ([12]; Table 1): -12.5%
- inhibition at 50 µg/mL ([12]; Table 2 (repeated screening)): -12.5%
- inhibition at 50 µg/mL ([13]; Table 1): 4.23%
- inhibition at 50 µg/mL ([13]; Table 2 (repeated screening)): 4.23%
- inhibition at 50 µg/mL ([14]; Table 1): 65.1%
- inhibition at 50 µg/mL ([14]; Table 2 (repeated screening)): 65%
- inhibition at 50 µg/mL ([15]; Table 1): 80%
- inhibition at 50 µg/mL ([15]; Table 2 (repeated screening)): 82.6%
- inhibition at 50 µg/mL ([16]; Table 1): 14%
- inhibition at 50 µg/mL ([16]; Table 2 (repeated screening)): 13.4%
- inhibition at 50 µg/mL ([17]; Table 1): 84.3%
- inhibition at 50 µg/mL ([17]; Table 2 (repeated screening)): 80.1%
- inhibition at 50 µg/mL ([18]; Table 1): 7.27%
- inhibition at 50 µg/mL ([18]; Table 2 (repeated screening)): 7.05%
- solubility in water (in words) [19]: very big
